Assay results published in ChEMBL document CHEMBL6134890, “Terminally Symmetric β-Turn Peptides for Multidrug-Resistant Bacterial Infections” (J Med Chem, 2025).
≈ marks a conversion by molar mass, not a printed value. Calls of active or inactive are those of the source. No cut-off for these calls is given here. Peptide text beside a SMILES is read from it.

Columns and labels:
Staphylococcus aureus [1] = test: Antimicrobial activity against multi-drug resistant Staphylococcus aureus assessed as reduction in bacterial growth by broth dilution method; type: functional
Enterococcus faecalis = test: Antimicrobial activity against multi-drug resistant Enterococcus faecalis assessed as reduction in bacterial growth by broth dilution method; type: functional
Escherichia coli [2] = test: Antimicrobial activity against multi-drug resistant Escherichia coli assessed as reduction in bacterial growth by broth dilution method; type: functional
[3] = Hemolytic activity in human Red blood cell assessed as hemolysis incubated for 1 hrs by microplate reader based analysis; type: toxicity; details: erythrocyte
BEAS-2B = test: Cytotoxicity against human BEAS-2B cells at 2 to 256 uM measured after 24 hrs by CCK-8 method; type: toxicity, cell-based; details: dose 2-256 µM
HEK-293T = test: Cytotoxicity against HEK293T cells at 2 to 256 uM measured after 24 hrs by CCK-8 method; type: toxicity, cell-based; details: human, dose 2-256 µM
Staphylococcus aureus [4] = test: Antimicrobial activity against multi-drug resistant Staphylococcus aureus assessed as reduction in bacterial growth in presence of KCl; type: functional, organism-based
Escherichia coli [5] = test: Antimicrobial activity against multi-drug resistant Escherichia coli assessed as reduction in bacterial growth in presence of NaCl; type: functional, organism-based
Escherichia coli [6] = test: Antimicrobial activity against multi-drug resistant Escherichia coli assessed as reduction in bacterial growth in presence of KCl; type: functional, organism-based
Escherichia coli [7] = test: Antimicrobial activity against multi-drug resistant Escherichia coli assessed as reduction in bacterial growth in presence of MgCl2; type: functional, organism-based
Escherichia coli [8] = test: Antimicrobial activity against multi-drug resistant Escherichia coli assessed as reduction in bacterial growth in presence of FeCl3; type: functional, organism-based
Staphylococcus aureus [9] = test: Antimicrobial activity against multi-drug resistant Staphylococcus aureus assessed as reduction in bacterial growth measured after 6 hrs in 25% plasma; type: functional, organism-based
Escherichia coli [10] = test: Antimicrobial activity against multi-drug resistant Escherichia coli assessed as reduction in bacterial growth measured after 6 hrs in 25% plasma; type: functional, organism-based
[11] = Half life of the compound in 25% plasma; type: ADME, cell-free
Escherichia coli [12] = test: Antimicrobial activity against multi-drug resistant Escherichia coli assessed as reduction in bacterial growth at 2 times MIC measured after 1 hrs in presence of trypsin by microplate reader based analysis; type: functional, organism-based
Staphylococcus aureus [13] = test: Antimicrobial activity against multi-drug resistant Staphylococcus aureus assessed as reduction in bacterial growth at 2 times MIC measured after 1 hrs in presence of trypsin by microplate reader based analysis; type: functional, organism-based
Staphylococcus aureus [14] = test: Antimicrobial activity against multi-drug resistant Staphylococcus aureus assessed as reduction in bacterial growth at 2 times MIC measured after 1 hrs in presence of chymotrypsin by microplate reader based analysis; type: functional, organism-based
Escherichia coli [15] = test: Antibacterial activity against Escherichia coli […] at sub-inhibitory concentration measured after 15 passages for 18 hrs; type: functional, organism-based
Staphylococcus aureus [16] = test: Bactericidal activity against multi-drug resistant Staphylococcus aureus assessed as eradication of bacterial growth at 2 times MIC by time-kill kinetic assay; type: functional, organism-based; details: time 120-720 min
Escherichia coli [17] = test: Bactericidal activity against multi-drug resistant Escherichia coli assessed as eradication of bacterial growth at 2 times MIC by time-kill kinetic assay; type: functional, organism-based; details: time 120-720 min
Staphylococcus aureus [18] = test: Bactericidal activity against multi-drug resistant Staphylococcus aureus assessed as eradication of bacterial growth at 2 times MIC measured after 3 hrs by time-kill kinetic assay relative to control; type: functional
Escherichia coli [19] = test: Bactericidal activity against multi-drug resistant Escherichia coli assessed as eradication of bacterial growth at 2 times MIC measured after 3 hrs by time-kill kinetic assay relative to control; type: functional
Cell membrane [20] = test: Disruption of cell membrane in multi-drug resistant Staphylococcus aureus assessed as stomatal formation at 2 times MIC measured for 120 mins by transmission electron microscopy analysis; type: subcellular
Cell membrane [21] = test: Disruption of cell membrane in multi-drug resistant Staphylococcus aureus assessed as cell shrinkage at 2 times MIC measured for 120 mins by transmission electron microscopy analysis; type: subcellular
Cell membrane [22] = test: Disruption of cell membrane in multi-drug resistant Escherichia coli assessed as stomatal formation at 2 times MIC measured for 120 mins by transmission electron microscopy analysis; type: subcellular
Cell membrane [23] = test: Disruption of cell membrane in multi-drug resistant Escherichia coli assessed as appearance of cell shrinkage at 2 times MIC measured for 120 mins by transmission electron microscopy analysis; type: subcellular
Cell membrane [24] = test: Disruption of cell membrane in multi-drug resistant Staphylococcus aureus assessed as increase in red fluorescence intensity of PI at 2 times MIC measured for 2 hrs by fluorescence confocal microscopic imaging based analysis; type: subcellular
Cell membrane [25] = test: Disruption of cell membrane in multi-drug resistant Escherichia coli assessed as increase in red fluorescence intensity of PI at 2 times MIC measured for 2 hrs by fluorescence confocal microscopic imaging based analysis; type: subcellular
Cell membrane [26] = test: Induction of cytoplasmic membrane depolarization in multi-drug resistant Escherichia coli at 1 to 4 times MIC measured within 1 min by DiSC3-5 fluorescent dye based analysis
Cell membrane [27] = test: Induction of cytoplasmic membrane depolarization in multi-drug resistant Staphylococcus aureus at 1 to 4 times MIC measured within 1 min by DiSC3-5 fluorescent dye based analysis
Staphylococcus aureus [28] = test: Antibiofilm activity against multi-drug resistant Staphylococcus aureus measured after 24 hrs by crystal violet staining based analysis; type: functional, organism-based
Escherichia coli [29] = test: Antibiofilm activity against multi-drug resistant Escherichia coli measured after 24 hrs by crystal violet staining based analysis; type: functional, organism-based
Escherichia coli [30] = test: Antibiofilm activity against multi-drug resistant Escherichia coli at 0.5 times MIC measured after 24 hrs by crystal violet staining based analysis; type: functional, organism-based
Escherichia coli [31] = test: Antibiofilm activity in […] assessed as eradication of formed biofilm by measuring reduction in viable bacterial count measured after 12 hrs by confocal microscopy based analysis; type: functional, organism-based
Staphylococcus aureus [32] = test: Additive antimicrobial activity against multi-drug resistant Staphylococcus aureus assessed as fractional inhibition concentration index in presence levofloxacin by microplate reader analysis; type: functional
Escherichia coli [33] = test: Antibacterial activity against multidrug resistant Escherichia coli infected in male Kunming mouse model assessed as recovery of mouse weight measured after 11 days; type: functional, organism-based; details: time 11.0 day
Escherichia coli [34] = test: Antibacterial activity against Escherichia coli ATCC 25922 infected in male Kunming mouse model assessed as reduction in bacterial load measured after 11 days in presence of levofloxacin; type: functional, organism-based; details: time 11.0 day
Escherichia coli [35] = test: Antibacterial activity against multidrug resistant Escherichia coli infected in male Kunming mouse model assessed as scabs thickening measured after 7 days in presence of levofloxacin by caliper method; type: functional, organism-based; details: time 7.0 day
Escherichia coli [36] = test: Antibacterial activity against multidrug resistant Escherichia coli infected in male Kunming mouse model assessed as wound healing measured after 11 days in presence of levofloxacin by caliper method relative to control; type: functional; details: time 11 day
Escherichia coli [37] = test: Antibacterial activity against multidrug resistant Escherichia coli infected in male Kunming mouse model assessed as wound healing measured after 11 days by caliper method relative to control; type: functional; details: time 11 day
Escherichia coli [38] = test: Antibacterial activity against multidrug resistant Escherichia coli infected in male Kunming mouse model assessed as reduction in tissue hemorrhage by H and E staining based analysis; type: functional, organism-based
Escherichia coli [39] = test: Antibacterial activity against multidrug resistant Escherichia coli infected in male Kunming mouse model assessed as reduction in epidermal thickening in presence of levofloxacin by H and E staining based analysis; type: functional, organism-based
Escherichia coli [40] = test: Antibacterial activity against multidrug resistant Escherichia coli infected in male Kunming mouse model assessed as reduction in vascular congestion in presence of levofloxacin by H and E staining based analysis; type: functional, organism-based
Escherichia coli [41] = test: Antibacterial activity against multidrug resistant Escherichia coli infected in male Kunming mouse model assessed as reduction in IL-6 expression in presence of levofloxacin by immunochemical analysis; type: functional, organism-based

With `CC[C@H](C)[C@H](NC(=O)[C@H](CCCCN)NC(=O)[C@@H](NC(=O)[C@H](CCCCN)NC(=O)[C@@H]1CCCN1C(=O)[C@H](Cc1c[nH]c2ccccc12)NC(=O)[C@H](Cc1c[nH]c2ccccc12)NC(=O)[C@H](Cc1c[nH]c2ccccc12)NC(=O)[C@@H]1CCCN1C(=O)[C@H](CCCCN)NC(=O)[C@@H](NC(=O)[C@H](CCCCN)NC(=O)[C@@H](NC(=O)[C@@H](N)CCCCN)[C@@H](C)CC)[C@@H](C)CC)[C@@H](C)CC)C(=O)N[C@@H](CCCCN)C(N)=O` (H-KIKIKPWWWPKIKIK-NH2) the MIC (Staphylococcus aureus [1]) was 8 µM (≈ 15.9 µg/mL), the MIC (Enterococcus faecalis) was 4 µM (≈ 7.97 µg/mL) and the MIC (Escherichia coli [2]) was 4 µM (≈ 7.97 µg/mL). For the same compound, the HC10 [3] was > 256 µM, the Activity (BEAS-2B) was “Toxic” and the Activity (HEK-293T) was “Toxic”. The Activity (Staphylococcus aureus [4]) was “Active”, the Activity (Escherichia coli [5]) was “Active” and the Activity (Escherichia coli [6]) was “Active”. For the same compound, the Activity (Escherichia coli [7]) was “Active”, the Activity (Escherichia coli [8]) was “Active” and the Activity (Staphylococcus aureus [9]) was “Active”. The Activity (Escherichia coli [10]) was “Active”, the half-life [11] was 75.5 h and the Activity (Escherichia coli [12]) was “inactive”. For the same compound, the Activity (Staphylococcus aureus [13]) was “inactive”, the Activity (Staphylococcus aureus [14]) was “inactive” and the Activity (Escherichia coli [15]) was “Active”. For the same compound, the Activity (Staphylococcus aureus [16]) was “Time-dependent-effect”, the Activity (Escherichia coli [17]) was “Time-dependent-effect” and the Activity (Staphylococcus aureus [18]) was 100%. The Activity (Escherichia coli [19]) was 100%, the Activity (Cell membrane [20]) was “Active” and the Activity (Cell membrane [21]) was “Active”. The Activity (Cell membrane [22]) was “Active”, the Activity (Cell membrane [23]) was “Active” and the Activity (Cell membrane [24]) was “Active”. The Activity (Cell membrane [25]) was “Active”, the Activity (Cell membrane [26]) was “Active” and the Activity (Cell membrane [27]) was “Active”. The Activity (Staphylococcus aureus [28]) was “Dose-dependent-effect”, the Activity (Escherichia coli [29]) was “Dose-dependent-effect” and the Activity (Escherichia coli [30]) was “Active”. The Activity (Escherichia coli [31]) was “Dose-dependent-effect”, the “fractional inhibitory concentration index (FICI)” value (Staphylococcus aureus [32]) was 0.75 and the Activity (Escherichia coli [33]) was “Active”. The Activity (Escherichia coli [34]) was “Active”, the Activity (Escherichia coli [35]) was “Active” and the Activity (Escherichia coli [36]) was 100%. For the same compound, the Activity (Escherichia coli [37]) was 100%, the Activity (Escherichia coli [38]) was “Active” and the Activity (Escherichia coli [39]) was “inactive”. The Activity (Escherichia coli [40]) was “Active” and the Activity (Escherichia coli [41]) was “Active”.
